Reference: US20220232834A1, “PSEUDOMONAS CHLORORAPHIS SPECIES AND ITS USE IN THE CONTROL OF DISEASES CAUSED BY BACTERIA AND FUNGI” (T3 BIOSCIENCE, LLC, priority 2021, published 2022)
Converted amounts (≈) assume the structure as drawn. Like-named read-outs stand apart in the source and are kept apart here. Marks after values point to notes of the source that are not given here.

Experiments:
[1] = test system: Clavibacter michiganensis subsp. michiganensis 382; experiment: MIC value study of 1214-CHY4 metabolites; format: cell-based
[2] = test system: Candida albicans; settings: Ref 1; producer Pseudomonas sp. Ki19; cited from earlier work
[3] = test system: Pseudomonas syringae. pv. tomato PT30; experiment: microbe, parasite or virus in culture; format: cell-based
[4] = test system: Aspergillus fumigatus; settings: Ref 1; producer Pseudomonas sp. Ki19; cited from earlier work
[5] = test system: Streptococcus mutans ATCC 25175; settings: Ref 6; producer Pseudomonas aurantiaca; cited from earlier work
[6] = test system: Pseudomonas sevastanoi; settings: Ref 1; producer Pseudomonas sp. Ki19; cited from earlier work
[7] = test system: Venturia inaequalis VI19-032; experiment: microbe, parasite or virus in culture; format: cell-based; settings: VI19032
[8] = test system: Drechslera sorokiniana; settings: Ref 1; producer Pseudomonas sp. Ki19; cited from earlier work
[9] = Ref 5, producer Pseudomonas sp. DC165, cited from earlier work
[10] = test system: Xanthomonas euvesicatoria 75-3; experiment: microbe, parasite or virus in culture; format: cell-based; settings: 753
[11] = test system: Bacillus subtilis subsp. spizizenii ATCC 6633; settings: Ref 6; producer Pseudomonas aurantiaca; cited from earlier work
[12] = test system: Botrytis cinerea CA17; experiment: microbe, parasite or virus in culture; format: cell-based
[13] = test system: Fusarium culmorum; settings: Ref 1; producer Pseudomonas sp. Ki19; cited from earlier work
[14] = test system: Phytophthora infestans 88069; experiment: microbe, parasite or virus in culture; format: cell-based
[15] = test system: Staphyllococcus aureus; settings: Ref 1; producer Pseudomonas sp. Ki19; cited from earlier work
[16] = test system: Staphylococcus epidermidis ATCC 14990; settings: Ref 6; producer Pseudomonas aurantiaca; cited from earlier work
[17] = test system: Ralstonia solanacearum K60; experiment: microbe, parasite or virus in culture; format: cell-based
[18] = test system: Enterococcus hirae ATCC 8043; settings: Ref 6; producer Pseudomonas aurantiaca; cited from earlier work
[19] = test system: Staphylococcus aureus ATCC 12600; settings: Ref 6; producer Pseudomonas aurantiaca; cited from earlier work
[20] = test system: Gaeumannomyces graminis var. tritici.; settings: Ref 6; producer P. fluorescens 2-79; cited from earlier work
[21] = test system: Alternaria alternata, Phytophthora sp., Fusarium solani, F. oxysporum; settings: Ref 12; producer P. chlororaphis MCC2693; cited from earlier work
[22] = test system: Vibrio anguillarum C312; settings: Ref 5; producer P. aeruginosa PA31x; cited from earlier work
[23] = test system: Fusarium oxysporum; settings: cited from earlier work
[24] = test system: Phytophthora infestans; settings: cited from earlier work
[25] = test system: Seiridium cardinale; settings: Ref 4; producer P. chlororaphis subsp. aureofaciens M71; cited from earlier work
[26] = test system: Botrytis cinerea; settings: cited from earlier work
[27] = test system: Staphylococcus aureus; settings: Ref 3-4; producer Pseudomonas sp. B-9004; cited from earlier work
[28] = test system: 22 bacteria and fungi, including Gram-positive bacteria mycobacteria; settings: Ref 3-4; producer Pseudomonas sp. B-9004; cited from earlier work
[29] = test system: Pseudomonas syringae. pv. tomato PT30; experiment: microbe, parasite or virus in culture; format: cell-based; settings: read-out: Diameter of Growth Inhibition Zone
[30] = test system: Erwinia amylovora 1189; experiment: microbe, parasite or virus in culture; format: cell-based; settings: Erwinia amylovora, 1189, read-out: Diameter of Growth Inhibition Zone
[31] = test system: Pectobacterium parmentieri UPP163 936; experiment: microbe, parasite or virus in culture; format: cell-based; settings: UPP163936, read-out: Diameter of Growth Inhibition Zone
[32] = test system: Pectobacterium carotovorum subsp. carotovorum wpp14 945; experiment: microbe, parasite or virus in culture; format: cell-based; settings: read-out: Diameter of Growth Inhibition Zone
[33] = test system: Pseudomonas savastanoi pv. savastanoi; experiment: microbe, parasite or virus in culture; format: cell-based; settings: read-out: Diameter of Growth Inhibition Zone
[34] = test system: Ralstonia solanacearum K60; experiment: microbe, parasite or virus in culture; format: cell-based; settings: K60, read-out: Diameter of Growth Inhibition Zone
[35] = test system: Xanthomonas arboricola pv. juglandis 219; experiment: microbe, parasite or virus in culture; format: cell-based; settings: read-out: Diameter of Growth Inhibition Zone
[36] = test system: Xanthomonas axonopodis pv. citri-Miami XC2002-00010; experiment: plate diffusion assay; format: cell-based; settings: read-out: Diameter of Growth Inhibition Zone
[37] = test system: Pseudomonas syringae. pv. lachrymans 1188-1; experiment: microbe, parasite or virus in culture; format: cell-based; settings: read-out: Diameter of Growth Inhibition Zone
[38] = test system: Erwinia amylovora CA11; experiment: microbe, parasite or virus in culture; format: cell-based; settings: CA11, read-out: Diameter of Growth Inhibition Zone
[39] = test system: Erwinia amylovora 88; experiment: microbe, parasite or virus in culture; format: cell-based; settings: Erwinia amylovora, 88, read-out: Diameter of Growth Inhibition Zone
[40] = test system: Dickeya dadantii 3937; experiment: microbe, parasite or virus in culture; format: cell-based; settings: Dickeya dadantii, 3937, read-out: Diameter of Growth Inhibition Zone
[41] = test system: Pectobacterium carotovorum subsp brasillensis 944; experiment: microbe, parasite or virus in culture; format: cell-based; settings: read-out: Diameter of Growth Inhibition Zone
[42] = test system: Xanthomonas campestris pv. vesicatoria XV-16; experiment: microbe, parasite or virus in culture; format: cell-based; settings: read-out: Diameter of Growth Inhibition Zone
[43] = test system: Pectobacterium atrosepticum 942; experiment: microbe, parasite or virus in culture; format: cell-based; settings: Pectobacterium atrosepticum, 942, read-out: Diameter of Growth Inhibition Zone
[44] = test system: Xanthomonas arboricola pv. juglandis 417; experiment: microbe, parasite or virus in culture; format: cell-based; settings: read-out: Diameter of Growth Inhibition Zone
[45] = test system: Xanthomonas axonopodis pv. citri N40-SO5; experiment: plate diffusion assay; format: cell-based; settings: read-out: Diameter of Growth Inhibition Zone
[46] = test system: Xanthomonas campestris pv. pruni; experiment: microbe, parasite or virus in culture; format: cell-based; settings: read-out: Diameter of Growth Inhibition Zone
[47] = test system: Ralstonia solanacearum Pss4; experiment: microbe, parasite or virus in culture; format: cell-based; settings: PSS4, read-out: Diameter of Growth Inhibition Zone
[48] = test system: Erwinia amylovora 110; experiment: microbe, parasite or virus in culture; format: cell-based; settings: Erwinia amylovora, 110, read-out: Diameter of Growth Inhibition Zone
[49] = test system: Erwinia amylovora DM1; experiment: microbe, parasite or virus in culture; format: cell-based; settings: DM1, read-out: Diameter of Growth Inhibition Zone
[50] = test system: Pseudomonas syringae. pv syringae 7046; experiment: microbe, parasite or virus in culture; format: cell-based; settings: read-out: Diameter of Growth Inhibition Zone
[51] = test system: Clavibacter michiganensis subsp. michiganensis Cmm 0690; experiment: plate diffusion assay; format: cell-based; settings: 200 μg/mL, read-out: Diameter of Growth Inhibition Zone
[52] = test system: Clavibacter michiganensis subsp. michiganensis NCPPB382; experiment: plate diffusion assay; format: cell-based; settings: 200 μg/mL, read-out: Diameter of Growth Inhibition Zone
[53] = test system: Clavibacter michiganensis subsp. michiganensis Cmm 0317; experiment: plate diffusion assay; format: cell-based; settings: 200 μg/mL, read-out: Diameter of Growth Inhibition Zone

CCCCCCc1c(O)cc(CCCCC)cc1O (single isomer, unassigned) [Peak 2, 2-hexyl-5-pentylbenzene-1,3-diol]
MIC [1]: 1.56^c μg/mL | MIC ([1]; Clavibacter michiganensis): 1.56 µg/mL | Activity (MIC values) [2]: Candida albicans (50 μg/mL) | MIC [3]: 312 µg/mL (≈ 1180 µM) | Activity (MIC values) [4]: Aspergillus fumigatus (50 μg/mL) | Activity (MIC values) [5]: ATCC 25175(4.2 μg/mL) | Activity (MIC values) [6]: Pseudomonas sevastanoi (50 μg/mL) | MIC [7]: > 100 µg/mL | Activity (MIC values) [8]: Drechslera sorokiniana (50 μg/mL) | Activity: free radical scavenging [9]: Free radical scavenging substances | Activity: free radical scavenging ([9]; listed as Resorstatin): free radical scavenging substance | MIC [10]: 78 µg/mL (≈ 295 µM) | Activity (MIC values) [11]: ATCC 6633(4.2 μg/mL) | MIC [12]: > 100 µg/mL | Activity (MIC values) [13]: Fusarium culmorum (50 μg/mL) | MIC [14]: > 100 µg/mL | Activity (MIC values) [15]: Staphyllococcus aureus (7 μg/mL) | Activity (MIC values) [16]: ATCC 14990 (4.2 μg/mL) | MIC ([17]; Ralstonia solanacearum, K60): > 25000 µg/mL | Activity (MIC values) [18]: ATCC 8043 (4.2 μg/mL) | Activity (MIC values) [19]: ATCC 12600 (2.1 μg/mL)

CCCCCCCc1cc(O)c(CCCCCC)c(O)c1 (single isomer, unassigned) [Peak 3, 2-hexyl-5-heptylbenzene-1,3-diol]
MIC ([1]; Clavibacter michiganensis): 0.78 µg/mL | MIC ([1]; modified broth dilution (microdilution) method): 0.78^c μg/mL | MIC [3]: 156 µg/mL (≈ 533 µM) | Activity (MIC values) [5]: ATCC 25175(8.4 μg/mL) | MIC [7]: > 100 µg/mL | MIC [10]: 78 µg/mL (≈ 267 µM) | Activity (MIC values) [11]: ATCC 6633(33.4 μg/mL) | MIC [12]: > 100 µg/mL | MIC [14]: > 100 µg/mL | Activity (MIC values) [16]: ATCC 14990 (4.2 μg/mL) | MIC ([17]; Ralstonia solanacearum, K60): > 25000 µg/mL | Activity (MIC values) [18]: ATCC 8043 (8.4 μg/mL) | Activity (MIC values) [19]: ATCC 12600 (4.2 μg/mL)

O=C(O)c1cccc2nc3ccccc3nc12 (single isomer, unassigned) [Peak 4, phenazine-1-carboxylic acid]
MIC ([1]; Clavibacter michiganensis): 100 µg/mL | Active Against [20]: Gaeumannomyces graminis var. tritici. | Active Against (order) [21]: Alternaria alternata > Phytophthora sp. > | MIC [3]: 100 µg/mL (≈ 446 µM) | MIC [7]: 31.3 µg/mL (≈ 140 µM) | Active Against [22]: Vibrio anguillarum C312 | MIC [10]: 100 µg/mL (≈ 446 µM) | Active Against ([23]; Ref 7, producer P. fluorescens strain Psd): Fusarium oxysporum | reported to be effective against ([23]; Upadhyay and Srivastava, 2011): effective | MIC [12]: 62.5 µg/mL (≈ 279 µM) | MIC [14]: 1.56 µg/mL (≈ 6.96 µM) | MIC ([17]; Ralstonia solanacearum, K60): 6.25 µg/mL (≈ 27.9 µM) | MIC ([17]; agar dilution method): 6.25^b μg/mL | Active Against ([24]; Ref 2, producer P. fluorescens LBUM636): Phytophthora infestans | Active Against ([24]; Ref 3, producer P. fluorescens LBUM223): Phytophthora infestans | Active Against [25]: Seiridium cardinale | Active Against ([26]; Ref 1, producer P. aeruginosa LV Strain): Botrytis cinerea | reported to be effective against ([26]; Upadhyay and Srivastava, 2011): effective

CCCCCCc1c(O)cc(CCC)cc1O [DB2073]
Activity (MIC values) [27]: (25 μg/mL) | Activity [28]: Active against 22 bacteria and fungi,

[H]/N=C(/N)N[C@H]1[C@H](O)[C@@H](O)[C@H](O[C@@H]2O[C@@H](C)[C@](O)(C=O)[C@H]2O[C@@H]2O[C@@H](CO)[C@H](O)[C@@H](O)[C@@H]2NC)[C@@H](N/C(N)=N\[H])[C@@H]1O [Streptomycin]
MIC ([1]; Clavibacter michiganensis): 12.5 µg/mL | zone of inhibition at 200 µg/mL [29]: 6 mm | MIC [3]: 3.13 µg/mL (≈ 5.38 µM) | zone of inhibition at 200 µg/mL [30]: 5 mm | zone of inhibition at 200 µg/mL [31]: 5 mm | zone of inhibition at 200 µg/mL [32]: 0 mm | zone of inhibition at 200 µg/mL [33]: 6 mm | zone of inhibition at 200 µg/mL [34]: 3 mm | zone of inhibition at 200 µg/mL [35]: 0 mm | zone of inhibition at 200 µg/mL [36]: 21 mm | zone of inhibition at 200 µg/mL [37]: 6 mm | zone of inhibition at 200 µg/mL [38]: 0 mm | zone of inhibition at 200 µg/mL [39]: 0 mm | zone of inhibition at 200 µg/mL [40]: 5 mm | zone of inhibition at 200 µg/mL [41]: 0 mm | zone of inhibition at 200 µg/mL [42]: 10 mm | MIC [10]: 50 µg/mL (≈ 86 µM) | zone of inhibition at 200 µg/mL [43]: 0 mm | zone of inhibition at 200 µg/mL [44]: 10 mm | zone of inhibition at 200 µg/mL [45]: 22 mm | MIC ([17]; Ralstonia solanacearum, K60): 25 µg/mL (≈ 43 µM) | zone of inhibition at 200 µg/mL [46]: 0 mm | zone of inhibition at 200 µg/mL [47]: 3 mm | zone of inhibition at 200 µg/mL [48]: 5 mm | zone of inhibition at 200 µg/mL [49]: 0 mm | zone of inhibition at 200 µg/mL [50]: 5 mm

CN[C@H](CC(C)C)C(=O)N[C@H]1C(=O)N[C@@H](CC(N)=O)C(=O)N[C@H]2C(=O)N[C@H]3C(=O)N[C@H](C(=O)N[C@H](C(=O)O)c4cc(O)cc(O)c4-c4cc3ccc4O)[C@H](O)c3ccc(c(Cl)c3)Oc3cc2cc(c3O[C@@H]2O[C@H](CO)[C@@H](O)[C@H](O)[C@H]2O[C@H]2C[C@](C)(N)[C@H](O)[C@H](C)O2)Oc2ccc(cc2Cl)[C@H]1O [Vancomycin, reference compound]
MIC ([1]; Clavibacter michiganensis): 0.39 µg/mL | MIC [3]: 100 µg/mL (≈ 69 µM) | zone of inhibition at 200 µg/mL [51]: 12 mm | zone of inhibition at 200 µg/mL [52]: 13 mm | zone of inhibition at 200 µg/mL [53]: 11 mm | MIC [10]: 50 µg/mL (≈ 34.5 µM) | MIC ([17]; Ralstonia solanacearum, K60): 100 µg/mL (≈ 69 µM)
